From patent publication US6943183B2 (Pfizer Inc, priority 2000, dated 2005)

target: T1, SF9 affinity purified rat FPT (Rattus norvegicus, UniProt Q02293+Q04631); assay: PFT (FPT) inhibitory activity assay, radiolabeled farnesyl pyrophosphate and biotinyl peptide, streptavidin beads; type: biochemical; settings: HEPES buffer pH 7.4, 30° C., 30 minutes; read-out: FTase IC50
T1 construct: made in house; host or cells: Sf9 insect cells
Summary of the method: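 Rat FPT expressed in SF9 cells was incubated 30 minutes at 30° C. with compound (in 10% DMSO), radiolabeled farnesyl pyrophosphate and biotinylated peptide. Buffer: HEPES pH 7.4, ZnCl2 20 μM, MgCl2 and DTT 5 mM each, 0.1% PEG 8000, 5 mM potassium phosphate (also run without phosphate). Product captured on streptavidin beads in magnesium acetate/H3PO4 stop buffer.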

Row | Structure (SMILES) | IC50 [nM]
1 | CNC(=O)c1ccc(SCc2c(O[C@H](Cn3ccnc3)c3ccccc3)ccc3c2CCCC3=O)cc1 [Compound 191, 4-{[(2-{[(1S)-2-(1H-Imidazol-1-yl)-1-phenylethyl]oxy}-5-oxo-5,6,7,8-tetrahydro-1-naphthalenyl)methyl]sulfanyl}-N-methylbenzamide] | 2
2 | C[C@@H](O)CNC(=O)c1ccc(SCc2c(O[C@H](Cn3ccnc3)c3ccccc3)ccc3c2CCCC3=O)cc1 [Compound 195, N-[(2R)-2-Hydroxypropyl]-4-{[(2-{[(1S)-2-(1H-imidazol-1-yl)-1-phenylethyl]oxy}-5-oxo-5,6,7,8-tetrahydro-1-naphthalenyl)methyl]sulfanyl}benzamide] | 0.2
3 | CN(C)CCNC(=O)c1ccc(S(=O)(=O)Cc2c(O[C@H](Cn3ccnc3)c3ccccc3)ccc3c2CCCC3=O)cc1 [Compound 181, N-[2-(Dimethylamino)ethyl]-4-{[(2-{[(1S)-2-(1H-imidazol-1-yl)-1-phenylethyl]oxy}-5-oxo-5,6,7,8-tetrahydro-1-naphthalenyl)methyl]sulfonyl}benzamide] | 20
4 | C[C@@H](O)CNC(=O)c1ccc(S(=O)(=O)Cc2c(O[C@H](Cn3ccnc3)c3ccccc3)ccc3c2CCCC3=O)cc1 [Compound 203, N-[(2R)-2-Hydroxypropyl]-4-{[(2-{[(1S)-2-(1H-imidazol-1-yl)-1-phenylethyl]oxy}-5-oxo-5,6,7,8-tetrahydro-1-naphthalenyl)methyl]sulfonyl}benzamide] | 1.2
5 | C#CCNC(=O)c1cccc(SCc2c(O[C@H](Cn3ccnc3)c3ccccc3)ccc3c2CCCC3=O)c1 [Compound 213, 3-{[(2-{[(1S)-2-(1H-Imidazol-1-yl)-1-phenylethyl]oxy}-5-oxo-5,6,7,8-tetrahydro-1-naphthalenyl)methyl]sulfanyl}-N-(2-propynyl)benzamide] | 0.2
6 | CC[C@H](C)CNC(=O)c1ccccc1S(=O)(=O)Cc1c(O[C@H](Cn2ccnc2)c2ccccc2)ccc2c1CCCC2=O [Compound 249] | 0.25
7 | C#CCNC(=O)c1ccc(S(=O)(=O)Cc2c(O[C@H](Cn3ccnc3)c3ccccc3)ccc3c2CCCC3=O)cc1 [Compound 214, 4-{[(2-{[(1S)-2-(1H-Imidazol-1-yl)-1-phenylethyl]oxy}-5-oxo-5,6,7,8-tetrahydro-1-naphthalenyl)methyl]sulfonyl}-N-(2-propynyl)benzamide] | 0.37
8 | O=C1CCCc2c1ccc(O[C@H](Cn1ccnc1)c1ccccc1)c2CNS(=O)(=O)Cc1ccccc1 [Compound 42g] | 1.5
9 | O=C(NC(CO)CO)c1ccccc1SCc1c(O[C@H](Cn2ccnc2)c2ccccc2)ccc2c1CCCC2=O [Compound 232, N-[2-Hydroxy-1-(hydroxymethyl)ethyl]-2-{[(2-{[(1S)-2-(1H-imidazol-1-yl)-1-phenylethyl]oxy}-5-oxo-5,6,7,8-tetrahydro-1-naphthalenyl)methyl]sulfanyl}benzamide] | 0.2
10 | O=C(O)CCNC(=O)c1ccc(SCc2c(O[C@H](Cn3ccnc3)c3ccccc3)ccc3c2CCCC3=O)cc1 [Compound 170, N-4-{[(2-{[(1S)-2-(1H-Imidazol-1-yl)-1-phenylethyl]oxy}-5-oxo-5,6,7,8-tetrahydro-1-naphthalenyl)methyl]sulfanyl}benzoyl-β-alanine] | 7
11 | O=C(NC1CCCC1)c1ccc(SCc2c(O[C@H](Cn3ccnc3)c3ccccc3)ccc3c2CCCC3=O)cc1 [Compound 220, N-Cyclopentyl-4-{[(2-{[(1S)-2-(1H-imidazol-1-yl)-1-phenylethyl]oxy}-5-oxo-5,6,7,8-tetrahydro-1-naphthalenyl)methyl]sulfanyl}benzamide] | 0.2
12 | O=C(NC1CCCC1)c1ccccc1SCc1c(O[C@H](Cn2ccnc2)c2ccccc2)ccc2c1CCCC2=O [Compound 222, N-Cyclopentyl-2-{[(2-{[(1S)-2-(1H-imidazol-1-yl)-1-phenylethyl]oxy}-5-oxo-5,6,7,8-tetrahydro-1-naphthalenyl)methyl]sulfanyl}benzamide] | 0.2
13 | O=C1CCCc2c1ccc(O[C@H](Cn1ccnc1)c1ccccc1)c2-c1ccc2c(c1)OCO2 [Compound 21, 5-(2H-Benzo[d]-1,3-dioxolan-5-yl)-6-((1S)-2-imidazolyl-1-phenylethoxy)-2,3,4-trihydronaphthalen-1-one] | 8
14 | COC(=O)c1ccccc1S(=O)(=O)Cc1c(O[C@H](Cn2ccnc2)c2ccccc2)ccc2c1CCCC2=O [Compound 154, Methyl 2-{[(2-{[(1S)-2-(1H-Imidazol-1-yl)-1-phenylethyl]oxy}-5-oxo-5,6,7,8-tetrahydro-1-naphthalenyl)methyl]sulfonyl}benzoate] | 2.6

The remaining lines, values ahead:

Row | IC50 [nM] | Structure (SMILES)
15 | 0.3 | O=C1CCCc2c1ccc(O[C@H](Cn1ccnc1)c1ccccc1)c2COC1CCCC1 [Compound 17]
16 | 17 | C=CCc1c(OC(Cn2ccnc2)c2ccccc2)ccc2c1CCCC2=O (racemic) [Compound 49, (±)-6-(2-imidazolyl-1-phenylethoxy)-5-prop-2-ethyl-2,3,4-trihydronaphthalen-1-one]
17 | 5 | O=C1CCCc2c1ccc(O[C@H](Cn1ccnc1)c1ccccc1)c2COc1cccc(F)c1 [Compound 102]
18 | 0.8 | CCOc1ccc(OCc2c(O[C@H](Cn3ccnc3)c3ccccc3)ccc3c2CCCC3=O)cc1 [Compound 79]
19 | 8 | C=CCOCc1c(O[C@H](Cn2ccnc2)c2ccccc2)ccc2c1CCCC2=O [Compound 18, 6-((1S)-2-imidazolyl-1-phenylethoxy)-5-(prop-2-enyloxymethyl)-2,3,4-trihydronaphthalen-1-one]
20 | 0.35 | COc1ccc([S+]([O-])Cc2c(O[C@H](Cn3ccnc3)c3ccccc3)ccc3c2CCCC3=O)cc1 (stereo partly drawn) [Compound 141, 6-((S)-2-Imidazol-1-yl-1-phenyl-ethoxy)-5-(4-methoxy-benzenesulfinylmethyl)-3,4-dihydro-2H-napthalen-1-one]
21 | 1 | CC(C)Cc1c(O[C@H](Cn2ccnc2)c2ccccc2)ccc2c1CCCC2=O [Compound 55, 6-((1S)-2-Imidazolyl-1-phenylethoxy)-5-(2-methylpropyl)-2,3,4-trihydronaphthalen-1-one]
22 | 8 | O=C(NCc1c(O[C@H](Cn2ccnc2)c2ccccc2)ccc2c1CCCC2=O)c1ccccn1 [Compound 42h, Pyridine-2-carboxylic acid [2-((S)-2-imidazol-1-yl-1-phenyl-ethoxy)-5-oxo-5,6,7,8-tetrahydro-naphthalen-1-ylmethyl]-amide]
23 | 3 | C=CCc1c(O[C@H](Cn2ccnc2)c2ccccc2)ccc2c1CCCC2=O [Compound 51, 6-((1S)-2-Imidazolyl-1-phenylethoxy)-5-prop-2-enyl-2,3,4-trihydronaphthalen-1-one]
24 | 4 | COc1cc(OC)cc(OCc2c(O[C@H](Cn3ccnc3)c3ccccc3)ccc3c2CCCC3=O)c1 [Compound 71, 6-((1S)-2-imidazolyl-1-phenylethoxy)-5-[(3,5-dimethoxyphenoxy)methyl]-2,3,4-trihydronaphthalen-1-one]
25 | 1.4 | CCC(CC)OCc1c(O[C@H](Cn2ccnc2)c2ccccc2)ccc2c1CCCC2=O [Compound 19c, 5-(1-Ethyl-propoxymethyl)-6-((S)-2-imidazol-1-yl-1-phenyl-ethoxy)-3,4-dihydro-2H-naphthalen-1-one]
26 | 10 | O=C1CCCc2c1ccc(O[C@H](Cn1ccnc1)c1ccccc1)c2COc1ccc2ccccc2c1 [Compound 85]
27 | 3 | CC(C)c1cccc(OCc2c(O[C@H](Cn3ccnc3)c3ccccc3)ccc3c2CCCC3=O)c1 [Compound 74]
